These results are taken from PubChem BioAssay AID256 (DTP/NCI, 2004).

Where “and” joins values, the source holds several entries; their conditions need not be identical. Identical values can stand only once. Inconclusive results and toxic doses are left out.

This test relates to CD2F1 mice, L1210 leukemia ip, survival T/C. The test is described as follows: NCI In Vivo Anticancer Drug Screen. Data for tumor model L1210 Leukemia (intraperitoneal) in CD2F1 (CDF1) mice. The following applies: higher = longer survival. Put shortly: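 In this screen, transplantable tumors were grown in mice given either the compound or its vehicle. Results were expressed as the treated measurement relative to the control measurement.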

On to `Nc1nc(=S)c2[nH]cnc2[nH]1`, for which the T/C runs as follows: (endpoint: mean survival time, dose: 0.13 mg/kg/injection, schedule: Q01DX009 (ip), vehicle: other) 110 % of control; (endpoint: mean survival time, dose: 0.25 mg/kg/injection, schedule: Q01DX009 (ip), vehicle: alkali diluted with saline) 114 % of control and 120 % of control; (endpoint: mean survival time, dose: 0.25 mg/kg/injection, schedule: Q01DX009 (ip), vehicle: other) 121 % of control; (endpoint: mean survival time, dose: 0.38 mg/kg/injection, schedule: Q01DX009 (ip), vehicle: acid diluted with saline) 116 % of control and 123 % of control; (endpoint: mean survival time, dose: 0.5 mg/kg/injection, schedule: Q01DX005 (ip), vehicle: water) 116 % of control; (endpoint: mean survival time, dose: 0.5 mg/kg/injection, schedule: Q01DX009 (ip), vehicle: alkali diluted with saline) 124 % of control. For the same compound, the T/C by setting is: (endpoint: mean survival time, dose: 0.5 mg/kg/injection, schedule: Q01DX009 (ip), vehicle: other) 121 % of control; (endpoint: mean survival time, dose: 0.66 mg/kg/injection, schedule: Q01DX009 (ip), vehicle: clinical formulation) 150 % of control; (endpoint: mean survival time, dose: 0.75 mg/kg/injection, schedule: Q01DX009 (ip), vehicle: acid diluted with saline) 164 % of control; (endpoint: mean survival time, dose: 1.0 mg/kg/injection, schedule: Q01DX005 (ip), vehicle: alkali diluted with saline) 163 % of control; (endpoint: mean survival time, dose: 1.0 mg/kg/injection, schedule: Q01DX005 (ip), vehicle: water) 120 % of control; (endpoint: mean survival time, dose: 1.0 mg/kg/injection, schedule: Q01DX007 (ip), vehicle: saline) 151 % of control. Besides, the T/C is 152 % of control (endpoint: mean survival time, dose: 1.0 mg/kg/injection, schedule: Q03DX003 (ip), vehicle: saline); 154 % of control (endpoint: mean survival time, dose: 1.0 mg/kg/injection, schedule: Q04DX003 (ip), vehicle: saline); 116 % of control and 118 % of control (endpoint: mean survival time, dose: 1.12 mg/kg/injection, schedule: Q04DX003 (ip), vehicle: acid diluted with saline); 152 % of control and 153 % of control (endpoint: mean survival time, dose: 1.2 mg/kg/injection, schedule: Q01DX009 (ip), vehicle: alkali diluted with saline); 150 % of control (endpoint: mean survival time, dose: 1.47 mg/kg/injection, schedule: Q01DX009 (ip), vehicle: clinical formulation); 158 % of control (endpoint: mean survival time, dose: 1.47 mg/kg/injection, schedule: Q01DX009 (ip), vehicle: saline). Further, the T/C is 164 % of control and 171 % of control and 180 % of control (endpoint: mean survival time, dose: 1.5 mg/kg/injection, schedule: Q01DX009 (ip), vehicle: acid diluted with saline); 159 % of control (endpoint: mean survival time, dose: 1.56 mg/kg/injection, schedule: Q01DX005 (ip), vehicle: alkali diluted with saline); 151 % of control (endpoint: mean survival time, dose: 1.8 mg/kg/injection, schedule: Q01DX009 (ip), vehicle: alkali diluted with saline); 158 % of control (endpoint: mean survival time, dose: 2.0 mg/kg/injection, schedule: Q01DX005 (ip), vehicle: alkali diluted with saline); 160 % of control (endpoint: mean survival time, dose: 2.0 mg/kg/injection, schedule: Q03DX003 (ip), vehicle: saline); 122 % of control (endpoint: mean survival time, dose: 2.0 mg/kg/injection, schedule: Q04DX003 (ip), vehicle: alkali diluted with saline). Further, the T/C runs as follows: (endpoint: mean survival time, dose: 2.0 mg/kg/injection, schedule: Q04DX003 (ip), vehicle: saline) 160 % of control; (endpoint: mean survival time, dose: 2.2 mg/kg/injection, schedule: Q01DX009 (ip), vehicle: clinical formulation) 155 % of control; (endpoint: mean survival time, dose: 3.0 mg/kg/injection, schedule: Q01DX009 (ip), vehicle: alkali diluted with saline) 536 % of control; (endpoint: mean survival time, dose: 3.12 mg/kg/injection, schedule: Q01DX005 (ip), vehicle: alkali diluted with saline) 188 % of control; (endpoint: mean survival time, dose: 4.0 mg/kg/injection, schedule: Q01DX005 (ip), vehicle: alkali diluted with saline) 150 % of control; (endpoint: mean survival time, dose: 4.0 mg/kg/injection, schedule: Q01DX007 (ip), vehicle: saline) 152 % of control. The T/C reads like this: (endpoint: mean survival time, dose: 4.0 mg/kg/injection, schedule: Q01DX009 (ip), vehicle: acid diluted with saline) 122 % of control; (endpoint: mean survival time, dose: 4.0 mg/kg/injection, schedule: Q03DX003 (ip), vehicle: saline) 156 % of control; (endpoint: mean survival time, dose: 4.0 mg/kg/injection, schedule: Q04DX003 (ip), vehicle: saline) 176 % of control; (endpoint: mean survival time, dose: 4.5 mg/kg/injection, schedule: Q04DX003 (ip), vehicle: acid diluted with saline) 161 % of control; (endpoint: mean survival time, dose: 6.25 mg/kg/injection, schedule: Q01DX005 (ip), vehicle: alkali diluted with saline) 159 % of control; (endpoint: mean survival time, dose: 9.0 mg/kg/injection, schedule: Q04DX003 (ip), vehicle: acid diluted with saline) 166 % of control. The T/C (endpoint: mean survival time, dose: 12.5 mg/kg/injection, schedule: Q01DX005 (ip), vehicle: alkali diluted with saline) was 119 % of control; the T/C (endpoint: mean survival time, dose: 18.0 mg/kg/injection, schedule: Q04DX003 (ip), vehicle: acid diluted with saline) was 176 % of control; the T/C (endpoint: mean survival time, dose: 20.0 mg/kg/injection, schedule: Q04DX003 (ip), vehicle: alkali diluted with saline) was 152 % of control; the T/C (endpoint: mean survival time, dose: 23.0 mg/kg/injection, schedule: Q01DX001 (ip), vehicle: alkali diluted with saline) is 158 % of control; the T/C (endpoint: mean survival time, dose: 25.0 mg/kg/injection, schedule: Q01DX005 (ip), vehicle: alkali diluted with saline) is 96 % of control; the T/C (endpoint: mean survival time, dose: 31.0 mg/kg/injection, schedule: Q01DX001 (ip), vehicle: alkali diluted with saline) is 161 % of control. The T/C runs as follows: (endpoint: mean survival time, dose: 47.0 mg/kg/injection, schedule: Q01DX001 (ip), vehicle: alkali diluted with saline) 167 % of control; (endpoint: median survival time, dose: 0.86 mg/kg/injection, schedule: Q01DX009 (ip), vehicle: acid diluted with saline) 152 % of control and 154 % of control; (endpoint: median survival time, dose: 1.44 mg/kg/injection, schedule: Q01DX009 (ip), vehicle: acid diluted with saline) 160 % of control; (endpoint: median survival time, dose: 2.4 mg/kg/injection, schedule: Q01DX009 (ip), vehicle: acid diluted with saline) 158 % of control; (endpoint: median survival time, dose: 2.7 mg/kg/injection, schedule: Q04DX003 (ip), vehicle: alkali diluted with saline) 159 % of control; (endpoint: median survival time, dose: 4.0 mg/kg/injection, schedule: Q01DX009 (ip), vehicle: acid diluted with saline) 151 % of control and 152 % of control. The T/C (endpoint: median survival time, dose: 4.5 mg/kg/injection, schedule: Q04DX003 (ip), vehicle: alkali diluted with saline) was 172 % of control; the T/C (endpoint: median survival time, dose: 7.5 mg/kg/injection, schedule: Q04DX003 (ip), vehicle: alkali diluted with saline) was 191 % of control; the T/C (endpoint: median survival time, dose: 12.5 mg/kg/injection, schedule: Q04DX003 (ip), vehicle: alkali diluted with saline) was 187 % of control; the T/C (endpoint: median survival time, dose: 20.0 mg/kg/injection, schedule: Q04DX003 (ip), vehicle: alkali diluted with saline) is 151 % of control; the T/C (endpoint: median survival time, dose: 20.83 mg/kg/injection, schedule: Q04DX003 (ip), vehicle: alkali diluted with saline) is 166 % of control; the T/C (endpoint: median survival time, dose: 40.0 mg/kg/injection, schedule: Q01DX001 (ip), vehicle: alkali diluted with saline) was 150 % of control and 161 % of control. For the setting “endpoint: median survival time, dose: 60.0 mg/kg/injection, schedule: Q01DX001 (ip), vehicle: alkali diluted with saline”, the T/C is 183 % of control.
`O=C(O)CC(CC(=O)O)C(=O)O.[NH-]C1CCCCC1[NH-].[Pt+2]`: the T/C (endpoint: median survival time, dose: 3.12 mg/kg/injection, schedule: Q04DX003 (ip), vehicle: Klucel (hydroxypropylcellulose) (HPC)) is 112 % of control; the T/C (endpoint: median survival time, dose: 3.12 mg/kg/injection, schedule: Q04DX003 (ip), vehicle: saline) is 106 % of control; the T/C (endpoint: median survival time, dose: 6.25 mg/kg/injection, schedule: Q04DX003 (ip), vehicle: Klucel (hydroxypropylcellulose) (HPC)) is 112 % of control; the T/C (endpoint: median survival time, dose: 6.25 mg/kg/injection, schedule: Q04DX003 (ip), vehicle: saline) is 106 % of control; the T/C (endpoint: median survival time, dose: 12.5 mg/kg/injection, schedule: Q04DX003 (ip), vehicle: Klucel (hydroxypropylcellulose) (HPC)) is 122 % of control; the T/C (endpoint: median survival time, dose: 12.5 mg/kg/injection, schedule: Q04DX003 (ip), vehicle: saline) is 101 % of control and 109 % of control. In addition, the T/C is 101 % of control (endpoint: median survival time, dose: 25.0 mg/kg/injection, schedule: Q04DX003 (ip), vehicle: Klucel (hydroxypropylcellulose) (HPC)); 118 % of control and 107 % of control (endpoint: median survival time, dose: 25.0 mg/kg/injection, schedule: Q04DX003 (ip), vehicle: saline); 103 % of control (endpoint: median survival time, dose: 50.0 mg/kg/injection, schedule: Q04DX003 (ip), vehicle: Klucel (hydroxypropylcellulose) (HPC)); 109 % of control (endpoint: median survival time, dose: 50.0 mg/kg/injection, schedule: Q04DX003 (ip), vehicle: saline); 109 % of control (endpoint: median survival time, dose: 100.0 mg/kg/injection, schedule: Q04DX003 (ip), vehicle: Klucel (hydroxypropylcellulose) (HPC)); 120 % of control and 110 % of control (endpoint: median survival time, dose: 100.0 mg/kg/injection, schedule: Q04DX003 (ip), vehicle: saline). Besides, the T/C is 116 % of control (endpoint: median survival time, dose: 200.0 mg/kg/injection, schedule: Q04DX003 (ip), vehicle: Klucel (hydroxypropylcellulose) (HPC)) and 113 % of control (endpoint: median survival time, dose: 200.0 mg/kg/injection, schedule: Q04DX003 (ip), vehicle: saline).
Turning to `NC(=O)OCC#CCN1CCCC1`, the T/C by setting is: (endpoint: mean survival time, dose: 5.0 mg/kg/injection, schedule: Q01DX009 (ip), vehicle: saline with Tween-80) 102 % of control; (endpoint: mean survival time, dose: 10.0 mg/kg/injection, schedule: Q01DX009 (ip), vehicle: saline with Tween-80) 103 % of control; (endpoint: mean survival time, dose: 20.0 mg/kg/injection, schedule: Q01DX009 (ip), vehicle: saline with Tween-80) 100 % of control.
